ChEMBL document CHEMBL4507269, “Data for DCP probe BAY-386” (2021)

What was measured:
[1] = target: Cannabinoid receptor 1 (Homo sapiens) (UniProt P21554); assay: CB1 (h) Eurofins-Cerep Cellular and Nuclear Receptor Functional Assays; conditions: Compound concentration 10.0 uM
[2] = target: Atypical kinase COQ8A, mitochondrial (Homo sapiens) (UniProt Q8NI60); conditions: Compound concentration 1000.0 nM
[3] = target: Cyclin-dependent kinase 11A (Homo sapiens) (UniProt Q9UQ88); conditions: Compound concentration 1000.0 nM
[4] = target: Cyclin-dependent kinase-like 3 (Homo sapiens) (UniProt Q8IVW4); conditions: Compound concentration 1000.0 nM
[5] = target: Dual specificity protein kinase CLK3 (Homo sapiens) (UniProt P49761); conditions: Compound concentration 1000.0 nM
[6] = target: Macrophage colony-stimulating factor 1 receptor (Homo sapiens) (UniProt P07333); conditions: Compound concentration 1000.0 nM
[7] = target: Tyrosine-protein kinase CSK (Homo sapiens) (UniProt P41240); conditions: Compound concentration 1000.0 nM
[8] = target: Myotonin-protein kinase (Homo sapiens) (UniProt Q09013); conditions: Compound concentration 1000.0 nM
Sequence of Myotonin-protein kinase (Homo sapiens) (Q09013 whole entry): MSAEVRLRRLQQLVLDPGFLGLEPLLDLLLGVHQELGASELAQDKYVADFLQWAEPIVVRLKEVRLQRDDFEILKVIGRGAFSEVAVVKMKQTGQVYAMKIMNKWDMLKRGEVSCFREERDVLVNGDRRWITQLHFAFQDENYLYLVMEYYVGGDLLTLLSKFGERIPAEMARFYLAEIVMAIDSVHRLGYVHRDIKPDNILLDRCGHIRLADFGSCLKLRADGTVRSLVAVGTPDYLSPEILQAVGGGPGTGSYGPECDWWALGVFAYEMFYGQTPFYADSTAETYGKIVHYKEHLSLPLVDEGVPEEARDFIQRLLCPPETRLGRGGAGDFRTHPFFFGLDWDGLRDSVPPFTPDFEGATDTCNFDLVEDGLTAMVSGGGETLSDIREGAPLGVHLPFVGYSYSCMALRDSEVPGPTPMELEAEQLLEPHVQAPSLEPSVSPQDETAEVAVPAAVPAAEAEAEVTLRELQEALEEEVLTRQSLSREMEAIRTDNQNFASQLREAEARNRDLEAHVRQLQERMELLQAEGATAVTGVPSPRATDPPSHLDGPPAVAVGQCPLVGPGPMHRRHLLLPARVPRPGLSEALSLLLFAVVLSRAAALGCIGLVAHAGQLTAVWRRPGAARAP

[9] = target: Ephrin type-B receptor 3 (Homo sapiens) (UniProt P54753); conditions: Compound concentration 1000.0 nM
[10] = target: Focal adhesion kinase 1 (Homo sapiens) (UniProt Q05397); conditions: Compound concentration 1000.0 nM
Sequence of Focal adhesion kinase 1 (Homo sapiens) (Q05397 2-1052 limits assumed): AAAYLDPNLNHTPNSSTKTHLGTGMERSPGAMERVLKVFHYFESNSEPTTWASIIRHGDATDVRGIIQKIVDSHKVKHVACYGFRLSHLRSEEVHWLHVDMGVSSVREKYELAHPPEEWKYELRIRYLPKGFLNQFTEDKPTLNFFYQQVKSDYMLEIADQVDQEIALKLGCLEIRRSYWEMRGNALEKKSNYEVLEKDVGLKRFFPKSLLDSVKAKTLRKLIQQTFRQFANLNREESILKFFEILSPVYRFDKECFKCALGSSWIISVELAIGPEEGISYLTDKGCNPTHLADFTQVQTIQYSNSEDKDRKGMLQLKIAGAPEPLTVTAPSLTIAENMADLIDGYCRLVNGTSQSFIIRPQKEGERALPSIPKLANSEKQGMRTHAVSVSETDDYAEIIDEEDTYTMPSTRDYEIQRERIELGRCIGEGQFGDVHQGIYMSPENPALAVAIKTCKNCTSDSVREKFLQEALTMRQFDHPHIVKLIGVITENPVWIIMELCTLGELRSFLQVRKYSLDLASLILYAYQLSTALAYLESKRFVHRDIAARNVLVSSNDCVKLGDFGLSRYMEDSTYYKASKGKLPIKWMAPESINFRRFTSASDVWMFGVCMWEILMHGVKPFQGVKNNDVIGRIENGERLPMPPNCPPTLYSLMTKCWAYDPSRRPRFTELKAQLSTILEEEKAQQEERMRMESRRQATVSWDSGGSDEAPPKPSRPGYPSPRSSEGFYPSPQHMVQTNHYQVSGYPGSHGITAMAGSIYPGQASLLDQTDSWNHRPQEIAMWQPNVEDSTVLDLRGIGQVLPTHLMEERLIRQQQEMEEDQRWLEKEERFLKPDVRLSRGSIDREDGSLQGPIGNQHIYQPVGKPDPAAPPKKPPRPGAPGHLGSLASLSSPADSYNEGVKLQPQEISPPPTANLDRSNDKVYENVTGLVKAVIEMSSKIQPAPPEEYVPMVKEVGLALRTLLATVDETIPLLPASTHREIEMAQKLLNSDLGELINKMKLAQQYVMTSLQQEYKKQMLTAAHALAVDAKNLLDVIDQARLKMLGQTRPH

[11] = target: Tyrosine-protein kinase Fer (Homo sapiens) (UniProt P16591); conditions: Compound concentration 1000.0 nM
[12] = test system: Fibroblast growth factor receptor 3 (Homo sapiens), P22607 [G697C]; conditions: Compound concentration 1000.0 nM
Sequence of Fibroblast growth factor receptor 3 (Homo sapiens), P22607 [G697C] (P22607 whole entry G697C): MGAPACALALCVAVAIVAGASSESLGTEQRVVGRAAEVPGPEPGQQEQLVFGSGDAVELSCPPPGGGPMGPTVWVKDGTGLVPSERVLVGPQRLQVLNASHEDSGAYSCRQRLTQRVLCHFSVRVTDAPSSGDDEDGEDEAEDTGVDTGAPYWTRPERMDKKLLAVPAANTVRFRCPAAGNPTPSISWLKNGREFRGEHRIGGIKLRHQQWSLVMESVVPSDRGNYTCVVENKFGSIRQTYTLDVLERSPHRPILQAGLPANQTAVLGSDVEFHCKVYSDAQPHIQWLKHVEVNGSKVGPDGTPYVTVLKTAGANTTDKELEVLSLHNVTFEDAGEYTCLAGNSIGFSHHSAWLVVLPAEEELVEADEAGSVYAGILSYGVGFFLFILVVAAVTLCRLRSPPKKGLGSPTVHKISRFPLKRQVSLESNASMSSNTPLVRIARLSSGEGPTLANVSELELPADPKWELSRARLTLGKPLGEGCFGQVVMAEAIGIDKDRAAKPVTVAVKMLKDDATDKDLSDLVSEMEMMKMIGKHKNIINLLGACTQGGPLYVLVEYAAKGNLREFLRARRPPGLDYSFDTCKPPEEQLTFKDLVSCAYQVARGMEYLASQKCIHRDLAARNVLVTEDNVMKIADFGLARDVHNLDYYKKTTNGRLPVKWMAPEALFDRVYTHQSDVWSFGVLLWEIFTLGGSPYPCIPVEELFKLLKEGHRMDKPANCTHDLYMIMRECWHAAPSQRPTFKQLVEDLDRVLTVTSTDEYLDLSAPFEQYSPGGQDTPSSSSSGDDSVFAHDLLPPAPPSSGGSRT

[13] = target: Tyrosine-protein kinase Fgr (Homo sapiens) (UniProt P09769); conditions: Compound concentration 1000.0 nM
[14] = target: Serine/threonine-protein kinase haspin (Homo sapiens) (UniProt Q8TF76); conditions: Compound concentration 1000.0 nM
[15] = target: Tyrosine-protein kinase HCK (Homo sapiens) (UniProt P08631); conditions: Compound concentration 1000.0 nM
[16] = test system: Mast/stem cell growth factor receptor Kit (Homo sapiens), P10721 [A829P]; conditions: Compound concentration 1000.0 nM
[17] = target: Mitogen-activated protein kinase kinase kinase 2 (Homo sapiens) (UniProt Q9Y2U5); conditions: Compound concentration 1000.0 nM
[18] = target: Serine/threonine-protein kinase MRCK beta (Homo sapiens) (UniProt Q9Y5S2); conditions: Compound concentration 1000.0 nM
[19] = target: Myosin-IIIa (Homo sapiens) (UniProt Q8NEV4); conditions: Compound concentration 1000.0 nM
Sequence of Myosin-IIIa (Homo sapiens) (Q8NEV4 whole entry): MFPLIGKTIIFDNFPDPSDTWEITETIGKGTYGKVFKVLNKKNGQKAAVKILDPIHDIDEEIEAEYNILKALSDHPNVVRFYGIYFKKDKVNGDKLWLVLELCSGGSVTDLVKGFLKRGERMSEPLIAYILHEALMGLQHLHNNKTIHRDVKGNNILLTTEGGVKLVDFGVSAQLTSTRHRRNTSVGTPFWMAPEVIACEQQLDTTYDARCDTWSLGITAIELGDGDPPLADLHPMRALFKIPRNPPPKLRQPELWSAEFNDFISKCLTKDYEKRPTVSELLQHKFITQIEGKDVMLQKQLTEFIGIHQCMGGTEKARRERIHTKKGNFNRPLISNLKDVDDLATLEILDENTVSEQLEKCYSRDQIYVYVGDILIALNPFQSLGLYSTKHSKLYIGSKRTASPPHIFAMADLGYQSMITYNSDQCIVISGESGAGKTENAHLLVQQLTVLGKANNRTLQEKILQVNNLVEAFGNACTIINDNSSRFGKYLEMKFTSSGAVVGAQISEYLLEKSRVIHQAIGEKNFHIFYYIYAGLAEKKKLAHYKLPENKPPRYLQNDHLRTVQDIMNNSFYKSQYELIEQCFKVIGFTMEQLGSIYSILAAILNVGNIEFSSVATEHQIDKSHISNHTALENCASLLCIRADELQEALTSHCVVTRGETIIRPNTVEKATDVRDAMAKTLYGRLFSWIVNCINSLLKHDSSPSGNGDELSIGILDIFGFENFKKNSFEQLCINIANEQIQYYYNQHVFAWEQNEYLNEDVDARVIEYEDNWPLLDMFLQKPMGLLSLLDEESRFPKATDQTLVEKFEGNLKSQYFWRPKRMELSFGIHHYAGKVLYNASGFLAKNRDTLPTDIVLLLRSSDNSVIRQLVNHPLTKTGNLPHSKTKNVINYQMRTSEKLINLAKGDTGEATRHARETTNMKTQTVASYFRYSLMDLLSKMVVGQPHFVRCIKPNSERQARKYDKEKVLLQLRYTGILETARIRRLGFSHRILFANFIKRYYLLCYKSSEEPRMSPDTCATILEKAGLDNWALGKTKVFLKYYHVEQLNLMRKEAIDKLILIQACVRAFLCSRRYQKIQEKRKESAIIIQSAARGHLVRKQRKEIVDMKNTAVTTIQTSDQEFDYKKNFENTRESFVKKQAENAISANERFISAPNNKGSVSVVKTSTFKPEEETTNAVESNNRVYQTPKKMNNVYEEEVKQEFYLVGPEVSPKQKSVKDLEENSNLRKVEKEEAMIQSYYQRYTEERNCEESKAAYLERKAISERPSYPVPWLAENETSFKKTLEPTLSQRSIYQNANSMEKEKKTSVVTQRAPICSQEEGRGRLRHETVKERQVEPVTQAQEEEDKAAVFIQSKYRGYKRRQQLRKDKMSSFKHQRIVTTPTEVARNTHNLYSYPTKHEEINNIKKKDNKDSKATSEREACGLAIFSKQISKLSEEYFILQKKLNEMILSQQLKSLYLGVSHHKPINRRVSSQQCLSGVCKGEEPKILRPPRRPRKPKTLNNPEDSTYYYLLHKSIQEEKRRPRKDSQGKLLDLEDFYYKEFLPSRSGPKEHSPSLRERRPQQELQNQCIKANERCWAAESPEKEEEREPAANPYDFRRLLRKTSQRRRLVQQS

[20] = target: Mitogen-activated protein kinase 14 (Homo sapiens) (UniProt Q16539); conditions: Compound concentration 1000.0 nM
[21] = test system: Phosphatidylinositol 4,5-bisphosphate 3-kinase catalytic subunit alpha isoform (Homo sapiens), P42336 [E542K]; conditions: Compound concentration 1000.0 nM
[22] = target: Serine/threonine-protein kinase pim-3 (Homo sapiens) (UniProt Q86V86); conditions: Compound concentration 1000.0 nM
[23] = target: Proto-oncogene tyrosine-protein kinase receptor Ret (Homo sapiens) (UniProt P07949); conditions: Compound concentration 1000.0 nM
[24] = test system: Proto-oncogene tyrosine-protein kinase receptor Ret (Homo sapiens), P07949 [V804L]; conditions: Compound concentration 1000.0 nM
[25] = target: Ribosomal protein S6 kinase alpha-4 (Homo sapiens) (UniProt O75676); conditions: Compound concentration 1000.0 nM
[26] = target: Angiopoietin-1 receptor (Homo sapiens) (UniProt Q02763); conditions: Compound concentration 1000.0 nM
[27] = target: 5-hydroxytryptamine receptor 1D (Homo sapiens) (UniProt P28221); conditions: Compound concentration 10.0 uM
[28] = target: Mu-type opioid receptor (Homo sapiens) (UniProt P35372); conditions: Compound concentration 10.0 uM
[29] = target: Kappa-type opioid receptor (Homo sapiens) (UniProt P41145); conditions: Compound concentration 10.0 uM
[30] = target: T1, Muscarinic acetylcholine receptor M1 (Homo sapiens) (UniProt P11229); conditions: Compound concentration 10.0 uM
T1 sequence (whole entry): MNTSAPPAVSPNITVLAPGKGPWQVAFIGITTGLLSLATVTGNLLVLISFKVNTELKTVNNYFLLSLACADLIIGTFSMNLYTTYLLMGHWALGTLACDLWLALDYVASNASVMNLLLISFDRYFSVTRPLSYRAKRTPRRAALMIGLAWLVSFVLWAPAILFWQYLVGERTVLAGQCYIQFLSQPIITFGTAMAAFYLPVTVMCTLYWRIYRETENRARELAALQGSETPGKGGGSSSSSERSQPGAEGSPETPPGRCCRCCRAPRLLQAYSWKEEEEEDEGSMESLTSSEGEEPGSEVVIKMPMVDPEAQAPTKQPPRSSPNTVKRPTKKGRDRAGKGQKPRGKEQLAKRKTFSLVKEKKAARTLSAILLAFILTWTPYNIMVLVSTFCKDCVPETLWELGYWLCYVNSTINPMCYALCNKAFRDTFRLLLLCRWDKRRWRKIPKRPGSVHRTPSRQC

[31] = target: T2, Alpha-1D adrenergic receptor (Homo sapiens) (UniProt P25100); conditions: Compound concentration 10.0 uM
T2 sequence (whole entry): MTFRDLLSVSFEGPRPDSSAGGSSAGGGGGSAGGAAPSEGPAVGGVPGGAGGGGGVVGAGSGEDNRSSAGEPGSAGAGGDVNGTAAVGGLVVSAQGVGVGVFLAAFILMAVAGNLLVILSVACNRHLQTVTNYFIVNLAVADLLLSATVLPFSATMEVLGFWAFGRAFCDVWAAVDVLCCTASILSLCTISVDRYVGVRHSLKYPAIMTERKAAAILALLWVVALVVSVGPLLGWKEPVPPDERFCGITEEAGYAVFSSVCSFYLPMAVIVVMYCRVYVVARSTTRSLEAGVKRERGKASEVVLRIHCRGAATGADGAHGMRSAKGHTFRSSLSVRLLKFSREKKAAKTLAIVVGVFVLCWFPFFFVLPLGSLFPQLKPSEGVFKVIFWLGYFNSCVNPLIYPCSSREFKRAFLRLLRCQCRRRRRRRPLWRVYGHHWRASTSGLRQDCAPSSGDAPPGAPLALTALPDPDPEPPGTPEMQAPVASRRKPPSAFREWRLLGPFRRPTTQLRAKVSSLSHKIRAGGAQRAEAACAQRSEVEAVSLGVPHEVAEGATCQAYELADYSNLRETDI

Sequence of Cannabinoid receptor 1 (Homo sapiens) (P21554 whole entry): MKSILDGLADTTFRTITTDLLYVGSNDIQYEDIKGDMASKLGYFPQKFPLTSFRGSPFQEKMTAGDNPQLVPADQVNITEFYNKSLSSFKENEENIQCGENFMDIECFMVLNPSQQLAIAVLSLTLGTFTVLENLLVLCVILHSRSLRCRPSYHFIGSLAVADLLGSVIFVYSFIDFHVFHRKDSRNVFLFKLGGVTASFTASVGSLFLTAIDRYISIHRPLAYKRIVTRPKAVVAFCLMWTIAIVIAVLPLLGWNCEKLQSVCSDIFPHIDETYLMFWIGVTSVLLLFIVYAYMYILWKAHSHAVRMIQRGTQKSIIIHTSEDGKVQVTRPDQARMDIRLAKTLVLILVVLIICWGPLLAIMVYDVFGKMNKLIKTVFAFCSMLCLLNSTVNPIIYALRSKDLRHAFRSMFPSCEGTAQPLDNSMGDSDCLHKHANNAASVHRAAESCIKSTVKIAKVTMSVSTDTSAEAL
Sequence of Atypical kinase COQ8A, mitochondrial (Homo sapiens) (Q8NI60 163-647 limits assumed): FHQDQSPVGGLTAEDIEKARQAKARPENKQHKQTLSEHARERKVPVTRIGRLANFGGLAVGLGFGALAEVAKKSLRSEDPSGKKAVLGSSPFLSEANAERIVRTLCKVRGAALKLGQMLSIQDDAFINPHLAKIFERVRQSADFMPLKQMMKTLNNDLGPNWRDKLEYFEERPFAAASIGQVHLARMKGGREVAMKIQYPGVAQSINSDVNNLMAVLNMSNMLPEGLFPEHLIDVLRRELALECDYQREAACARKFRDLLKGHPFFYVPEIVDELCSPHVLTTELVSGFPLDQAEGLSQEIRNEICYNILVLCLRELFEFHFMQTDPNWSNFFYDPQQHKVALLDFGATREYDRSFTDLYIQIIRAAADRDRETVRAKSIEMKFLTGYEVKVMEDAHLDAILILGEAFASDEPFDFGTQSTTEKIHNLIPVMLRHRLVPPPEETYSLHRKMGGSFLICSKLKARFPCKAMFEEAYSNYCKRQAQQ

SMILES	% Inhibition of Control Agonist Response (Mean n=2) [1] [%]	% of Control Agonist Response (Mean n=2) [1] [%]	residual activity [2] [%]	residual activity [3] [%]	residual activity [4] [%]	residual activity [5] [%]	residual activity [6] [%]	residual activity [7] [%]	residual activity [8] [%]	residual activity [9] [%]	residual activity [10] [%]	residual activity [11] [%]	residual activity [12] [%]	residual activity [13] [%]	residual activity [14] [%]	residual activity [15] [%]	residual activity [16] [%]	residual activity [17] [%]	residual activity [18] [%]	residual activity [19] [%]	other results
O=C(N1CCS(=O)(=O)CC1)N1C[C@H](c2ccc(OC(F)(F)F)cc2)C[C@H](c2nc(C3CC3)no2)C1 [BAY-386]	80.7	-267	100	0	93	100	100	100	100	100	93	100	100	100	95	100	100	100	100	100	residual activity [20]: 100%; residual activity [21]: 88%; residual activity [22]: 100%; residual activity [23]: 93%; residual activity [24]: 99%; residual activity [25]: 82%; residual activity [26]: 100%; inhibition [27]: 5.17%; inhibition [28]: -4.38%; inhibition [29]: 1.29%; inhibition [30]: 2.07%; inhibition [31]: 2.45%
Cc1noc([C@H]2C[C@@H](c3ccc(C(F)(F)F)cc3)CN(C(=O)N3CCS(=O)(=O)C3)C2)n1 [BAY-448]	-0.6	-17.6	91	100	81	100	100	100	100	100	100	82	84	100	100	100	100	99	100	100	residual activity [20]: 79%; residual activity [21]: 71%; residual activity [22]: 91%; residual activity [23]: 100%; residual activity [24]: 100%; residual activity [25]: 100%; residual activity [26]: 100%; inhibition [27]: -9.27%; inhibition [28]: 2.23%; inhibition [29]: 7.69%; inhibition [30]: -7.31%; inhibition [31]: -1.84%
